“And” between values parts separate entries of the source, which are not always exact repeats. Equal values may be shown once.
Key:
SHEE cells = experiment: MTT assay, normal esophageal epithelial cell line SHEE; format: cell-based; details: Homo sapiens, 48 h, n = 5
Description: (§1) The human cancer cells (H1650, H1975, KYSE70, KYSE410 and KYSE450) were purchased from the Type Culture Collection of the Chinese Academy of Sciences (Shanghai, China). The human immortalized normal esophageal epithelial cell line SHEE was donated by Dr. Enmin Li from the Laboratory of Tumor Pathology (Shantou University Medical College, Shantou, Guangdong, China). Drug-resistant cells (H1650TR, H1975OR, KYSE70TR, KYSE410TR and KYSE450TR) were induced by China-US (Henan) Hormel Cancer Institute. The cellswere cultured in RPMI-1640 complete growth medium containing 100 U/mL penicillin-streptomycin and 10% FBS. Based on the above medium formula, 100 nm/L paclitaxel was added in taxol-resistant cells, 100 nm/L gefitinib was added in gefitinib-resistant cells. The cells were incubated at 37 °C in an atmosphere containing 5% of CO2. The compounds were dissolved in DMSO to make a 50 mM stock solution and were diluted to the concentration of working solutions with complete growth medium before administration.
(§2) Cells were seeded in 96-well plates with 2,200–2,500 cells/well in100 μL. One day after seeding, test compounds with the concentration between 0 and 50 μM were added with 0.1% DMSO as control. Five multiple wells for each concentration. After 48 h, MTT was added and incubated in the plate for 1–4 h in the incubator. The absorbance at 490 nm was measured using a microplate reader (Thermo).

H1975 cells = experiment: MTT assay for cell proliferation and cytotoxicity, H1975; format: cell-based, human; details: Homo sapiens, NCI-H1975, 48 h, MTT, 48 h, H1975, n = 5; read-out: IC50 48 h H1975
Description: as §1
as §2, with “After 48 h, MTT was added and incubated in the plate for 1–4 h in the incubator.” left out

H1650 cells = experiment: MTT assay for cell proliferation and cytotoxicity, H1650; format: cell-based; details: Homo sapiens, NCI-H1650, 48 h, H1650, n = 5
Description: as §1, §2

KYSE450 cells = experiment: MTT assay, KYSE450; format: cell-based, human; details: for IC50: Homo sapiens, KYSE-450, MTT, 48 h, KYSE450, n = 5, read-out: IC50 48 h KYSE450; for absorbance 490 nm, single well / mean absorbance 490 nm (row G) / mean absorbance 490 nm minus background (row H): KYSE450
Description: as §1, §2

KYSE70 cells = experiment: MTT assay, KYSE70; format: cell-based, human; details: for IC50: Homo sapiens, KYSE-70, MTT, 48 h, KYSE70, n = 5
Description: as §1, §2

KYSE410 cells = experiment: MTT assay, KYSE410; format: cell-based, human; details: for IC50: Homo sapiens, KYSE-410, MTT, 48 h, KYSE410, n = 5, read-out: IC50 48 h KYSE410
Description: as §1, §2

[1] = concentration 12.5 (unit not given)
[2] = concentration 25 (unit not given)
[3] = concentration 50 (unit not given)
[4] = concentration 100 (unit not given)

Q: Which results are given for `Brc1ccc(-n2cc(-c3cccc(Nc4ncnc5cc6c(cc45)OCCOCCOCCO6)c3)nn2)cc1` [compound 3j]?
A: IC50 (SHEE cells): > 50 µM; melting point: 158 to 161 °C; IC50 (H1975 cells): 5.02 ± 0.37 µM; IC50 (H1650 cells): 27.6 ± 1.85 µM; IC50 (KYSE450 cells): 12.5 ± 1.22 µM; IC50 (KYSE70 cells): 50 µM; IC50 (KYSE410 cells): > 50 µM

Q: For `Brc1ccccc1-n1cc(-c2cccc(Nc3ncnc4cc5c(cc34)OCCOCCOCCO5)c2)nn1` [compound 3k], which IC50 (SHEE cells) is on record?
A: 12.5 ± 1.03 µM

Q: And the melting point?
A: 129 to 132 °C

Q: What about the IC50 (H1975 cells) of the same compound?
A: 27.2 ± 1.67 µM

Q: And the IC50 (H1650 cells)?
A: 17.7 ± 1.21 µM

Q: And the IC50 (KYSE450 cells)?
A: 6.25 ± 0.57 µM

Q: And the IC50 (KYSE70 cells)?
A: 5.05 ± 0.34 µM

Q: What about the IC50 (KYSE410 cells) of the same compound?
A: 21.9 ± 1.39 µM

Q: For `Fc1ccccc1Cn1cc(-c2cccc(Nc3ncnc4cc5c(cc34)OCCOCCOCCO5)c2)nn1` [compound 3m], which IC50 (SHEE cells) is on record?
A: > 50 µM

Q: And the melting point?
A: 118 to 121 °C

Q: What about the IC50 (H1975 cells) of the same compound?
A: 47.3 ± 2.01 µM

Q: And the IC50 (H1650 cells)?
A: > 50 µM

Q: And the IC50 (KYSE450 cells)?
A: > 50 µM

Q: And the IC50 (KYSE70 cells)?
A: > 50 µM

Q: And the IC50 (KYSE410 cells)?
A: > 50 µM

Q: Which results are given for `Cc1ccccc1Cn1cc(-c2cccc(Nc3ncnc4cc5c(cc34)OCCOCCOCCO5)c2)nn1` [compound 3n]?
A: IC50 (SHEE cells): 8.05 ± 0.71 µM; melting point: 114 to 117 °C; IC50 (H1975 cells): 18.5 ± 1.43 µM; IC50 (H1650 cells): 17 ± 1.27 µM; IC50 (KYSE450 cells): 13.4 ± 0.99 µM; absorbance 490 nm, single well (KYSE450 cells; [1]): 0.3403 and 0.3956 and 0.3877; mean absorbance 490 nm (row G) (KYSE450 cells; [1]): 0.3745; mean absorbance 490 nm minus background (row H) (KYSE450 cells; [1]): 0.3163; absorbance 490 nm, single well (KYSE450 cells; [2]): 0.0581 and 0.0586 and 0.0622 and 0.0619; mean absorbance 490 nm (row G) (KYSE450 cells; [2]): 0.0602; mean absorbance 490 nm minus background (row H) (KYSE450 cells; [2]): 0.002; absorbance 490 nm, single well (KYSE450 cells; [3]): 0.062 and 0.0626 and 0.0677 and 0.0632; mean absorbance 490 nm (row G) (KYSE450 cells; [3]): 0.06374; mean absorbance 490 nm minus background (row H) (KYSE450 cells; [3]): 0.00554; absorbance 490 nm, single well (KYSE450 cells; [4]): 0.0608 and 0.061 and 0.0613 and 0.0611 and 0.0627; mean absorbance 490 nm (row G) (KYSE450 cells; [4]): 0.06138; mean absorbance 490 nm minus background (row H) (KYSE450 cells; [4]): 0.00318; IC50 (KYSE70 cells): 6.87 ± 0.51 µM; blank-corrected absorbance 490 nm relative to control (fraction) (KYSE70 cells; KYSE70, concentration 12.5): 0.09055; inhibition (1 minus fraction of control) (KYSE70 cells; KYSE70, concentration 12.5): 0.9094; blank-corrected absorbance 490 nm relative to control (fraction) (KYSE70 cells; KYSE70, concentration 25): 0.002598; inhibition (1 minus fraction of control) (KYSE70 cells; KYSE70, concentration 25): 0.9974; blank-corrected absorbance 490 nm relative to control (fraction) (KYSE70 cells; KYSE70, concentration 50): 0.03637; inhibition (1 minus fraction of control) (KYSE70 cells; KYSE70, concentration 50): 0.9636; blank-corrected absorbance 490 nm relative to control (fraction) (KYSE70 cells; KYSE70, concentration 100): 0.0579; inhibition (1 minus fraction of control) (KYSE70 cells; KYSE70, concentration 100): 0.9421; IC50 (KYSE410 cells): 8.23 ± 0.92 µM; blank-corrected absorbance 490 nm relative to control (fraction) (KYSE410 cells; KYSE410, concentration 12.5): 0.2414; inhibition (1 minus fraction of control) (KYSE410 cells; KYSE410, concentration 12.5): 0.7586; blank-corrected absorbance 490 nm relative to control (fraction) (KYSE410 cells; KYSE410, concentration 25): 0.04668; inhibition (1 minus fraction of control) (KYSE410 cells; KYSE410, concentration 25): 0.9533; blank-corrected absorbance 490 nm relative to control (fraction) (KYSE410 cells; KYSE410, concentration 50): 0.02603; inhibition (1 minus fraction of control) (KYSE410 cells; KYSE410, concentration 50): 0.974; blank-corrected absorbance 490 nm relative to control (fraction) (KYSE410 cells; KYSE410, concentration 100): 0.07058; inhibition (1 minus fraction of control) (KYSE410 cells; KYSE410, concentration 100): 0.9294

Q: Which IC50 (SHEE cells) does the source give for `Cc1ccc(Cn2cc(-c3cccc(Nc4ncnc5cc6c(cc45)OCCOCCOCCO6)c3)nn2)cc1` [compound 3o] here?
A: 22.4 ± 1.26 µM

Q: And the melting point?
A: 124 to 127 °C

Q: And the IC50 (H1975 cells)?
A: 8.7 ± 0.66 µM

Q: And the IC50 (H1650 cells)?
A: 5.6 ± 0.29 µM

Q: And the IC50 (KYSE450 cells)?
A: 4.81 ± 0.36 µM

Q: What about the IC50 (KYSE70 cells) of the same compound?
A: 14.6 ± 0.96 µM

Q: What about the IC50 (KYSE410 cells) of the same compound?
A: > 50 µM

Q: Which IC50 (SHEE cells) does the source give for `Ic1ccccc1Cn1cc(-c2cccc(Nc3ncnc4cc5c(cc34)OCCOCCOCCO5)c2)nn1` [compound 3p] here?
A: > 50 µM

Q: What about the melting point of the same compound?
A: 121 to 123 °C

Q: What about the IC50 (H1975 cells) of the same compound?
A: 39.5 ± 1.91 µM

Q: What about the IC50 (H1650 cells) of the same compound?
A: 4.41 ± 0.31 µM

Q: And the IC50 (KYSE450 cells)?
A: > 50 µM

Q: What about the IC50 (KYSE70 cells) of the same compound?
A: 19.9 ± 1.31 µM

Q: What about the IC50 (KYSE410 cells) of the same compound?
A: > 50 µM

Q: For `Brc1cccc(Cn2cc(-c3cccc(Nc4ncnc5cc6c(cc45)OCCOCCOCCO6)c3)nn2)c1` [compound 3q], which IC50 (SHEE cells) is on record?
A: > 50 µM

Q: And the melting point?
A: 113 to 116 °C

Q: And the IC50 (H1975 cells)?
A: 47.3 ± 2.13 µM

Q: And the IC50 (H1650 cells)?
A: 21.5 ± 1.87 µM

Q: What about the IC50 (KYSE450 cells) of the same compound?
A: 21.8 ± 1.12 µM

Q: What about the IC50 (KYSE70 cells) of the same compound?
A: 20.7 ± 1.73 µM

Q: And the IC50 (KYSE410 cells)?
A: > 50 µM

Reference: PMC9709406 (Frontiers in Pharmacology, 2022)
